Laboratory results reported in patent US9683009B2, “Bone-selective osteogenic oxysterol-bone targeting agents” (The Regents of the University of California, priority 2013, dated 2017).

Columns and labels:
[1] = in vitro hydroxyapatite (HAP) binding assay; settings: for % Binding to Hydroxyapatite: 20 μM analyte, HAP 50 mg/mL, 50 mM Tris-HCl pH 7.5, 20% DMSO, 10 minutes; for binding to HAP (in words): in vitro, estradiol at 20 μM
Method: An in vitro HAP binding assay was conducted as follows. A 1 mM solution of each analyte was made in 100% dimethylsulfoxide (DMSO). A further dilution was then made to form a 20 μM solution of each analyte in 50 mM Tris-HCl Buffer at pH 7.5 with 20% DMSO. […] The HAP concentration used was 50 mg/mL.
For each analyte, samples were prepared in triplicate. The control samples (1 mL of 20 μM analyte) were transferred into a microcentrifuge tube. To a second set of samples (1 mL of 20 μM analyte) in a microcentrifuge tube was added 50 mg of HAP. The samples were vortexed, gently mixed with inversion for 10 minutes at room temperature, and then centrifuged at 4,400 rpm for 2 minutes to sediment the HAP contained in the samples. The supernatant was transferred to another set of microcentrifuge tubes.
An electronic spectral scan (ultraviolet-visible) from 220-520 nm was obtained for each analyte using a Bio-Rad Smart-Spec 3000. The blank was 50 mM Tris-HCl Buffer, pH 7.5, 20% DMSO. The wavelength of maximum absorbance (λmax) was determined, and the extinction coefficient (ε) was calculated using the Beer-Lambert Law.
The absorbance of the samples incubated with HAP was measured at λmax and the molar concentration of the analyte was then determined using the Beer-Lambert Law and the previously calculated ε. The concentration of the analytes 17β-estradiol, Oxy149, Oxy153, and Oxy155 without and with contact with HAP is shown in FIG. 10.
The fraction of analyte absorbed to HAP for each sample was subsequently calculated using the following formula for % binding, (Ho−H)/Ho*100=% binding with Ho being the mean concentration of control samples and H being the mean calculated concentration of samples treated with HAP.

C3H10T1/2 cells = experiment: alkaline phosphatase activity in C3H10T1/2 cells after 4 days of treatment; assay type: cell-based; settings: 1 μM
Method: [drawing 19] (In Oxy133 the 6-hydroxyl group is more reactive toward succinic anhydride than the 3-hydroxyl.) The resulting conjugate, OXY149, retains most of the osteogenic activity of the parent Oxy133 in C3H10T1/2 cells determined by the level of induction of osteogenic differentiation marker, alkaline phosphatase activity after 4 days of treatment (Control: 2±1; Oxy133 (1 μM): 390±10; Oxy149 (1 μM): 100±12; Oxy149 (5 μM): 500±18; Oxy149 (10 μM); 480±12; Oxy149 (20 μM): 470±25). BTA-linker 1 can be attached via the 3- and/or 6-positions of OXY133 using tunable linker attachments.

[2] = tested on: M2-10B4 bone marrow stromal cells; experiment: osteogenic differentiation / ALP enzymatic activity in M2-10B4 bone marrow stromal cells; assay type: cell-based; settings: M2-10B4 cells; for ALP Activity: ± SD; for EC50: read-out: EC50 based on activation of ALP
Method: Osteogenic differentiation was assessed by the induction of alkaline phosphatase (ALP) enzymatic activity, as well as induced expression of osteogenic differentiation marker genes ALP, bone sialoprotein (BSP), and osterix (OSX).

[3] = half-life in human liver microsomes; assay type: in vitro ADME; settings: read-out: half-life in human liver microsomes (HLM)
Excerpt: Naturally-occurring oxysterols, 20(S)-hydroxycholesterol, 22(S)-hydroxycholesterol and 22(R)-hydroxycholesterol can be used as potential osteogenic agents (Kha; Richardson; Amantea). A series of potent osteogenic oxysterol analogues was identified, which are efficacious both in vitro and in vivo. Members of this family of semi-synthetic oxysterols induce robust bone formation and spine fusion in rats when applied locally between transverse processes via a collagen sponge (T. S. Johnson). The compound OXY133 is an analog in the series with enhanced osteogenic activity (FIG. 1) (Montgomery). Oxy133 can induce osteogenesis in cultured human primary mesenchymal stem cells and induce spine fusion in rats in an accelerated manner compared to other analogues. Oxy133 can induce robust osteogenesis in non-rodent models of bone disease such as rabbit spine fusion and rabbit calvarial defect models. Oxy133 is a drug development candidate for local administration with potential application in spine fusion and repair of non-union fractures. […] Furthermore, due to the possible mechanism of osteogenesis, a transient activation of the Hh-pathway in MSCs, increasing selectivity for bone tissue while minimizing the exposure to other tissues may be prudent. This can be accomplished by linking a bone targeting agent (BTA) to the oxysterol molecule that selectively delivers it to bone.

Hedgehog (Hh) signaling = experiment: Hedgehog signaling activation: expression of Hh target genes Ptch and HIP in M2-10B4 cells; assay type: cell-based
Method: The expression of Ptch gene in M2-10B4 cells in vitro 4 days after initial contact with each oxysterol at a concentration of 1 μM is shown in FIG. 8. The expression of HIP gene in M2-10B4 cells in vitro 4 days after initial contact with each oxysterol at a concentration of 1 μM is shown in FIG. 9.

[4] = oxysterol + cyclopamine (Cyc; 5 μM)

## C[C@]12CC[C@@H]3c4ccc(O)cc4CC[C@H]3[C@@H]1CC[C@@H]2O [17β-estradiol, reference compound]
[1]
  % Binding to Hydroxyapatite: −1.95%
  binding to HAP (in words): no binding to HAP

## CCCCCC[C@](C)(O)[C@H]1CC[C@H]2[C@@H]3C[C@H](O)[C@H]4C[C@@H](O)CC[C@]4(C)[C@H]3CC[C@@]21C [Oxy133, reference compound]
C3H10T1/2 cells
  alkaline phosphatase activity: 390±10
[2]; oxysterol 1 μM
  ALP Activity: 714 ± 5 units/mg protein
[2]; [4]
  ALP Activity: 31 ± 7 units/mg protein
[3]
  half-life: < 5 min

## CCCCCCC(C)(O)C1CCC2C3CC(OC(=O)C(N)CC(=O)NCCOCCOCC(=O)Nc4ccc(OC)c(C(N)=O)c4O)C4CC(O)CCC4(C)C3CCC21C (stereo not shown) [Oxy154]
[1]
  binding to HAP (in words): can bind hydroxyapatite (HAP)
Hedgehog (Hh) signaling
  activation of Hedgehog (Hh) signaling by induced expression of Ptch and HIP: activate Hedgehog (Hh) signaling
[2]
  osteogenic differentiation (ALP activity, ALP, BSP, OSX gene expression): induce osteogenic differentiation
  EC50: 630 nM
[2]; oxysterol 1 μM
  ALP Activity: 390 ± 68 units/mg protein
[2]; [4]
  ALP Activity: 18 ± 2 units/mg protein

## CCCCCCC(C)(O)C1CCC2C3CC(OC(=O)C(N)CC(=O)NCCOCCOCC(=O)Nc4ccc(OC)c(C(N)=O)c4O)C4CC(OC(=O)C(N)CC(=O)NCCOCCOCC(=O)Nc5ccc(OC)c(C(N)=O)c5O)CCC4(C)C3CCC21C (stereo not shown) [Oxy155]
[1]
  % Binding to Hydroxyapatite: 76.68%
  binding to HAP (in words): can bind hydroxyapatite (HAP)
Hedgehog (Hh) signaling
  activation of Hedgehog (Hh) signaling by induced expression of Ptch and HIP: activate Hedgehog (Hh) signaling
[2]
  osteogenic differentiation (ALP activity, ALP, BSP, OSX gene expression): induce osteogenic differentiation
  EC50: 330 nM
[2]; oxysterol 1 μM
  ALP Activity: 582 ± 8 units/mg protein
[2]; [4]
  ALP Activity: 39 ± 2 units/mg protein
